This experiment deals with acute allograft rejection. The experiment in a line: murine cardiac ear pinna model of acute allograft rejection (non-vascularized cardiac tissue transplantation). In kind it is in vivo. The conditions noted are these: for Graft Survival Mean ± Std Dev: monotherapy, day 0 to 17. The text has this: In Vivo Murine Cardiac Ear Pinnae Model of Transplatation
• Methods: A rapid, facile 2-week murine bioassay of non-vascularized cardiac tissue transplantation,t he murine cardiac ear pinna model of acute allograft rejection, was used to evaluate the dose-response relationship of immunosuppressive drugs on allograft rejection. In this model, donor BALB/C (N2^d) neonatal hearts are transplanted into recipient C3H/HeN (H2^k) ear pinna pouches without vacular anastomoses. […] All compounds are given on day 0 to 17 COMPOUND P [(+)-2-[3,4-dihydro(3S,4R)-4-hydroxy-3-(4-phenyl-phenylmethyl)-7-(2H, 1-benzopyran)]cyclopentane carboxylic acid] was given orally in 0.5% Methylcellulose. […] Grafts were assessed by visual examination for contraction on alternate days (from 6 to 18) and graft survival was defined as the post-transplant day on which contractions cease. Efficacy data from day 6 to 18 is presented as mean survival days (±SD) and was analyzed by Log Rank Analysis. Graft survival values were deterined at day 18. […] The studies were performed at Stanford Medical Ceter in a collaborative grant with Randall Morris, MD. […]

Experimental findings from patent EP0943339A2, “Method of preventing allograft rejection” (priority 1998, dated 1999) are described below.

`O=C(O)C1CCCC1c1ccc2c(c1)OC[C@H](Cc1ccc(-c3ccccc3)cc1)[C@H]2O` (single isomer, unassigned; (+)) [COMPOUND P]: under “highest dose, 300 mg/kg/d”, the “efficacy as a single agent in acute rejection” value is given as “significant (p<0.01)”. The “Graft Survival Mean ± Std Dev” value runs as follows: (COMPOUND P 30 mg/kg/d orally, survival assessed to day 18) 11.0 ± 1.1 days; (COMPOUND P 100 mg/kg/d orally, survival assessed to day 18) 10.3 ± 0.7 days; (COMPOUND P 200 mg/kg/d orally, survival assessed to day 18) 10.3 ± 0.7 days; (COMPOUND P 300 mg/kg/d orally, survival assessed to day 18) 11.8 ± 1.1 days.

Regarding `COc1c(C)c2c(c(O)c1C/C=C(\C)CCC(=O)O)C(=O)OC2` [MPA], the “Graft Survival Mean ± Std Dev” value (MPA 100 mg/kg/d, survival assessed to day 18) is 13.6 ± 1.9 days and the “Graft Survival Mean ± Std Dev” value (MPA 150 mg/kg/d, survival assessed to day 18) is recorded as 16.6 ± 1.9 days.

Consider `C=CC[C@@H]1/C=C(\C)C[C@H](C)C[C@H](OC)[C@H]2O[C@@](O)(C(=O)C(=O)N3CCCC[C@H]3C(=O)O[C@H](/C(C)=C/[C@@H]3CC[C@@H](O)[C@H](OC)C3)[C@H](C)[C@@H](O)CC1=O)[C@H](C)C[C@@H]2OC` (relative stereo) [FK506, [3S-[3R*[E(1S*,3S*,4S*)], 4S*, 5R*, 8S*, 9E, 12R*, 14R*, 15S*, 16R*, 18S*, 19S*, 26aR*]]-5,6,8,11,12,13,14,15,16,17,18,19,24,25,26,26a-Hexadeachydro-5,19-dihydroxy-3-[2-(4-hydroxy-3-[2-(4-hydroxy-3-methoxycyclohexyl)-1-methyl-ethenyl]-14,16-dimethoxy-4,10,12,18-tetramethyl-8-(2-propenyl)-15,19-epoxy-3H-pyrido[2,1-c][1,4]oxaazacyclotricosine-1,7,20,21(4H,23H)-tetrone], for which the “Graft Survival Mean ± Std Dev” value is, setting by setting: (FK506 0.2 mg/kg/d intraperitoneal, survival assessed to day 18) 11.6 ± 1.3 days; (FK506 0.4 mg/kg/d intraperitoneal, survival assessed to day 18) 12.4 ± 0.9 days; (FK506 0.6 mg/kg/d intraperitoneal, grafts surviving at day 18 censored) more than 16.9 ± 1.8 days; (FK506 0.8 mg/kg/d intraperitoneal, grafts surviving at day 18 censored) more than 17.8 ± 0.6 days.
